Data as given in patent US7579356B2, “Thia-tetraazaacenaphthylene kinase inhibitors” (Janssen Pharmaceutica NV, priority 2005, dated 2009).

Tests used:
HCT-116 colon carcinoma = test: Cell Proliferation Inhibition Assay, HCT-116 (14C-thymidine); type: cell-based; conditions: Homo sapiens, HCT-116 cell proliferation
Text: (§1) Cell Proliferation Inhibition Assay
(§2) The ability of a test compound to inhibit unregulated cell proliferation may be determined by measuring incorporation of ^14C-labelled thymidine into newly synthesized DNA within cell lines derived from carcinomas originating from several tissues. Accordingly, the effect of a test compound on proliferation of cells with a variety of phenotypes may be determined.
(§3) Carcinoma cell lines used include the HeLa cervical adenocarcinoma from the American Type Culture Collection (ATCC Cat. #CCL2), A375 malignant melanoma (ATCC Cat. #CRL-1619), HCT-116 colon carcinoma (ATCC Cat. #CCL-247), SKBR3 breast carcinoma (ATCC Cat. #HTB-30) and BT474 breast carcinoma (ATCC Cat. #HTB-20).
(§4) The carcinoma cells were trypsinized and counted. The cells (3000-8000 count) were added to each well of a 96-well CytoStar tissue culture treated scintillating microplate (Amersham #RPNQ0160) in complete medium (100 μL) and the plate was then incubated in complete medium for 24 hrs at 37° C. in an inert atmosphere containing 5% CO2.
(§5) Test compound (1 μL) in 100% DMSO was added to the plate test-wells with DMSO only added to control-wells. The plate was incubated in complete medium for a second 24 hr period at 37° C. in an atmosphere containing 5% CO2.
(§6) An aliquot of a solution of Methyl ^14C-thymidine (56 mC/mmol) (NEN #NEC568 or AMersham #CFA532) and complete medium (20 uL to provide 0.2 μCl/well) was then added to each well and the plate was incubated for a third 24 hr period at 37° C. in an atmosphere containing 5% CO2.
(§7) The plate contents were then discarded, the plate washed twice with PBS (200 μL) and then PBS (200 μL) was added to each well. The plate was sealed and the degree of methyl ^14C-thymidine incorporation was quantified on a Packard Top Count.
(§8) Cell proliferation of the Hela cell line was measured using the ATP-Lite method as described in the ATP Lite Kit (Perkin-Elmer Kit Number 6106941) or the C^14 method as described above. Cell proliferation of the other cell lines was measured using the C^14 method.

EGFR = biological target: T1, EGFR (Homo sapiens, UniProt P00533); test: EGFR Kinase Assay; type: biochemical; conditions: GST-EGFR, ATP 5 μM
T1 construct: The intracellular portion of EGFR started at nucleotide 2189 (corresponding to amino acid 667) and ended at the termination codon; made in house; host or cells: Sf9 insect cells (baculovirus)
Outline: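 GST-fused human EGFR intracellular domain (from aa 667), Sf9-expressed, phosphorylated biotinylated polyGluTyr with 5 μM ATP plus γ-33P ATP in Tris pH 8.0, MgCl2, vanadate, 1 mM DTT, 1 h at 30 °C. Streptavidin Flashplate scintillation read; triplicate 16-point half-log series from 200 uM; IC50 from % inhibition vs log concentration, else % inhibition at 2 μM.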

[1] = tested on: HeLa cervical adenocarcinoma; test: Cell Proliferation Inhibition Assay, Hela (C14 method); type: cell-based; conditions: Homo sapiens, Table 7
Text: as §1, §2, §3, §4, §5, §6, §7, §8

A375 malignant melanoma = test: Cell Proliferation Inhibition Assay, A375 (14C-thymidine); type: cell-based; conditions: Homo sapiens, A-375
Text: as §1, §2, §3, §4, §5, §6, §7, §8

T1 sequence (P00533 669-1210 limits assumed): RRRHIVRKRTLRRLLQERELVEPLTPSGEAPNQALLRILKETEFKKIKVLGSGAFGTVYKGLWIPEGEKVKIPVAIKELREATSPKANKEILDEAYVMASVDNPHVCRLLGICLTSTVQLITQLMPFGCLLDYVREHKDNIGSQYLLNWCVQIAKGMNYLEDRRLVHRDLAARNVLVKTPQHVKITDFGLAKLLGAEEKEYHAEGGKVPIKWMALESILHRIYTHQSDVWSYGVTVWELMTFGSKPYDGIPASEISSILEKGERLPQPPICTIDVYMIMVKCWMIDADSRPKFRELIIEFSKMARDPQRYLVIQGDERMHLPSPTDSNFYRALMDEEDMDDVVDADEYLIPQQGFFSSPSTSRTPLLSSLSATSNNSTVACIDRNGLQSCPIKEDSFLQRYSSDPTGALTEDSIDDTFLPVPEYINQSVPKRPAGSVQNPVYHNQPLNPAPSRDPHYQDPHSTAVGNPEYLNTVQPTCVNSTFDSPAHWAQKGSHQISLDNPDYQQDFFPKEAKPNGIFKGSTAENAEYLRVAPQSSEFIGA

**Q.** How did the IC50 (HCT-116 colon carcinoma) turn out when CN1CCC(NC(=O)c2sc3ncnc4c3c2NC(=O)N4c2ccc(Oc3ccc(F)cc3)cc2)CC1 [Cpd 118, 5-[4-(4-fluoro-phenoxy)-phenyl]-4-oxo-4,5-dihydro-3H-1-thia-3,5,6,8-tetraaza-acenaphthylene-2-carboxylic acid (1-methyl-piperidin-4-yl)-amide] was run?
**A.** The IC50 was 10 µM.

**Q.** And the IC50 (EGFR)?
**A.** The IC50 was 0.132 µM.

**Q.** And the IC50 [1]?
**A.** Its IC50 is no less than 10 µM.

**Q.** What about the IC50 (A375 malignant melanoma) of the same compound?
**A.** Its IC50 is 10 µM.
